Experimental data taken from publication PMC10685318, “Trans-cyclosulfamidate mannose-configured cyclitol allows isoform-dependent inhibition of GH47 α-D-mannosidases through a bump–hole strategy” (Chemical Science, 2023).
pIC50: −log10 of the molar value.

Biological target: T1, MAN2B2 (Homo sapiens, UniProt Q9Y2E5)
T1 construct: expressed in transfected cells
T1 sequence (Q9Y2E5 24-1009): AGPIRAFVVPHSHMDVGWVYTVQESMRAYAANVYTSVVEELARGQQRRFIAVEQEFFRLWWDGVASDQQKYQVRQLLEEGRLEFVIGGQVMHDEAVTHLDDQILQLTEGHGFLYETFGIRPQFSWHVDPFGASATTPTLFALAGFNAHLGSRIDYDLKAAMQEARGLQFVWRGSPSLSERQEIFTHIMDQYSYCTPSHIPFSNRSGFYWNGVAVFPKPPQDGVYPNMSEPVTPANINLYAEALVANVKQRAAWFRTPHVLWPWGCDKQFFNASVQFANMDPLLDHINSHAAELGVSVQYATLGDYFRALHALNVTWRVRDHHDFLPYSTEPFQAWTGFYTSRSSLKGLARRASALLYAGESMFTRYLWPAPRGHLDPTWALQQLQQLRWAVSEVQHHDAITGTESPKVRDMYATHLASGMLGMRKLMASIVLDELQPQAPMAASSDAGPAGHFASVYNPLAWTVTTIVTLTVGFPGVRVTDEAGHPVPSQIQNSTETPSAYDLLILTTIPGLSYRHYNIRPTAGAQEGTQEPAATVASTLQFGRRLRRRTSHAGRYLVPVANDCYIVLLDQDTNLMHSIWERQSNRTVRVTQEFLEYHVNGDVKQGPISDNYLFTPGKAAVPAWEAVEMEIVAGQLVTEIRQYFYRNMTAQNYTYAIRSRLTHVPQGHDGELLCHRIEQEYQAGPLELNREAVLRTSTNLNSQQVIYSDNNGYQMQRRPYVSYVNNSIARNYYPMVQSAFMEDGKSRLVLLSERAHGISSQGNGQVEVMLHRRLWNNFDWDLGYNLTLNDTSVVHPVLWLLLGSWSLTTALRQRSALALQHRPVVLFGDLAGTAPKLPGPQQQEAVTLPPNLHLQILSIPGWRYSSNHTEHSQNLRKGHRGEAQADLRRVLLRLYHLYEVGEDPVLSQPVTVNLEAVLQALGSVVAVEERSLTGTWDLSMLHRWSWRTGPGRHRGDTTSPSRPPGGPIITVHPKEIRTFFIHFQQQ
Assay: 4-MU-α-man activity assay in overexpressed cell lysates
Format: biochemical
Description: Finally, selectivity versus a panel of related exo-mannosidases was investigated. We first tested inhibition against all five human GH38 retaining α-mannosidases in overexpressed cell lysates using 4-methylumbelliferyl-α-mannoside (4-MU-α-man): Golgi mannosidase II and IIx (MAN2A1 and MAN2A2), cytosolic MAN2C1 and lysosomal MAN2B1 and MAN2B2. This α-mannosidase family follows a different conformational itinerary than GH47: ^0S2 → B2,5 → ^1S5.[35] […] Of note, the presence of cobalt has been associated with conformational changes in the active site of some GH38 α-mannosidases, which might affect the binding interaction with inhibitors.[36] Nevertheless, additional research is required to explore which specific metal ion is present in the MAN2C1 active site in its in vivo state.
Trans-Cyclosulfamidate Cyclitols Males et al.
2.3 GH38 α-mannosidases and GH2 β-mannosidase inhibition studies
All chemicals were of analytical grade and purchased from Sigma-Aldrich unless stated otherwise.
Optimal stability of cell homogenates and enzyme working stocks was ensured by preparation and temporary storage on ice. Cell homogenates were prepared and used on the same day. Protein concentrations were quantified using the Pierce BCA Protein Assay Kit (ThermoFisher). Protein samples were measured in clear flat-bottom polystyrene 96 well microplates (Greiner Bio-One) using a EMax Plus Microplate Reader (Molecular Devices). Activity measurements of human GH38 α-mannosidases and bacterial β-mannosidase BtMan2A were performed in black flat-bottom polystyrene 96 wells microplates (Greiner Bio-One) and total fluorescence was measured using a Perkin Elmer LS-55 fluorescence spectrometer at wavelengths λex = 366 and λem = 445 nm, with the signal optimized for medium gain readings. The fluorescence values of each enzyme sample were corrected for the background signal of a blank sample containing no enzyme. In the case of IC50 determinations, values were normalized against a control sample containing enzyme without added inhibitor. For a single experiment, three separate curves were fitted from a technical triplicate by setting the inhibitor concentration in µM against the normalized response using GraphPad Prism 8.4.2 software. The Prism functions ‘[inhibitor] versus normalized response’ and ‘[inhibitor] versus normalized response -- variable slope’ were compared for each curve using the Akaike’s Information Criterion method to select the preferred model. Reported IC50 values are mean ± standard deviation from a biological […]
General cell culture protocol
HEK293T cells were grown to confluency at 37 °C under a 5% CO2 atmosphere in Dulbecco’s Modified Eagle’s Medium (DMEM) with a high glucose concentration (Capricorn Scientific, DMEM-HPXA) that was supplemented with 10% fetal calf serum, 0.1% (w/v) penicillin/streptomycin and 1% (v/v) Glutamax. Cells were passaged twice a week to new round polystyrene (PS) tissue culture dishes (Sarstedt) by detachment off the former culture plates by careful pipetting. To prepare cell pellets for activity measurements, plates were grown to confluency and harvested in phosphate buffered saline (PBS). After centrifugation at 1500 rpm for 5 min, the remaining PBS was aspirated and the cells were resuspended in fresh PBS. The concentration of the resulting suspension was then counted using a TC20 automated cell counter (BioRad). Aliquots were centrifuged at 2000 rpm for 5 min and the resulting cell pellets were stored at -80 °C until further use.
4-MU activity assay protocol for human GH38 α-mannosidases
HEK293T cells stably overexpressing human GH38 α-mannosidases MAN2A1, MAN2A2, MAN2B1, MAN2B2 and MAN2C1 were prepared as previously described[11] and were kindly donated by Dr. C. L.
Kuo. Homogenates were prepared by sonicating cell pellets (Sonics VibraCell, 5x1 s with 30 s interval at 20% amplitude) in 150 mM McIlvain buffer of pH 5.5 (MAN2A1, MAN2A2), pH 4.5 (MAN2B1, MAN2B2) or pH 6.7 (MAN2C1) containing either 2 mM ZnCl2 (MAN2A1, MAN2A2, MAN2B1, MAN2B2) […]

O=S1(=O)N[C@@H]2[C@@H](O)[C@@H](O)[C@H](O)[C@@H](CO)[C@H]2O1 [compound 6, 1,6-trans-manno-cyclosulfamidate]
activity when the buffer was enriched with CoCl2 (CoCl2): no activity
pIC50 (Zn2+): < 3.00
